Source: patent US11034960B2, “PKLR inhibition in the treatment of NAFLD and HCC” (ScandiEdge Therapeutics AB, priority 2017, dated 2021)

Tests used:
[1] = tested on: PKLR; test: qPCR of target gene expression in HepG2 cells after siRNA or expression plasmid transfection; format: cell-based, human; settings: siRNA 50 nM, 72 hours, P<0.05
Description: HepG2 cell line was purchased from ATCC and selected for subsequent genetic modification. Cells were routinely cultured in humidified incubator with 5% CO2 at 37°. Cells were maintained by RPMI 1640 medium (R2405, Sigma-Aldrich) with 10% fetal bovine serum (FBS, F7524, Sigma-Aldrich).
For downregulation of target genes, PKLR, PNPLA3, and PCSK9, RNAi experiment was performed by silencer predesigned siRNA kit (Assay ID: 53 for PKLR, 121938 for PNPLA3 and 103966 for PCSK9, Thermo Fisher Scientific, USA). According to the manufacturer's instructions, HepG2 cells were treated by specific siRNA at 50 nM of final concentration using reverse transfection on the help of Lipofectamine RNAiMAX for 72 hours. Negative Control for transfection (4390843, Thermo Fisher Scientific, USA) was selected as standard for comparison from the same company. […]
Cells were treated for experiment when they were grown to 80% confluence. […] Expressions of target genes were validated by quantitative real-time PCR (Schmittgen and Livak, 2008). […] And the relative expression of each gene was calculated by 2-ΔΔCT method described before (Schmittgen and Livak, 2008). β-actin was selected as internal reference gene for normalization.
All results of measurement were presented/shown by mean±SD and One-way ANOVA was applied for comparisons in quantitative covariates. […]

[2] = tested on: HepG2 cells; test: Lipidomics measurement of triglycerides in HepG2 cells with PKLR downregulation; format: cell-based, human
Description: To better clarify the genetic impact of PKLR on lipid deposition, cells were treated by siRNA and then tested by mass spectrometer for lipidomics data, sequentially. To be specific, HepG2 cells were transfected by siRNA (Assay ID: 53 with target on PKLR, applied by aforementioned method) for 72 hours and then harvested for lipidomics measurement. Correspondingly, cells treated with non-targeting siRNA (4390843, Thermo Fisher Scientific, USA) were assigned as control.
For lipidomics measurement, cells were extracted using butanol/methanol (BUME) as previously described (Lofgren et al., 2012). Internal standards (either deuterated or containing heptadecanoyl (C17:0) fatty acids) were added during the extraction. Analysis of triacylglycerols and phosphatidylcholines were made using direct infusion on a QTRAP 5500 mass spectrometer (Sciex, Concord, Canada) equipped with a robotic nanoflow ion source, the TriVersa NanoMate (Advion BioSciences, Ithaca, N.J.). Detection of triacylglycerols was made using neutral loss scanning in positive mode (Murphy et al., 2007). Phosphatidylcholines were analyzed in positive mode using m/z 184 (phosphocholine) as fragment ion (Brugger et al., 1997).

[3] = tested on: K562 cells; test: RT-PCR gene expression in K562 cells after interference by C75 or PKLR-specific siRNA for 24 hours; format: cell-based, human; settings: C75 at different concentrations (0, 40, 60 μM), FIG. 2A
Description: (§1) RNA was isolated for RT-PCR after interference for 24 hours; GAPDH was set as the internal reference. Cell counting was performed after interference for 72 hours. Data are presented as the means±standard errors of five independent experiments. Comparisons were performed by one-way ANOVA. Samples without any interference were assigned as controls. * represents a significant difference compared with the value in the control group (P<0.05).
(§2) For subsequent experiments, K562 and HepG2, human immortalized myelogenous leukemia and hepatic cell lines, respectively, were selected. Both cell lines were cultured in RPMI-1640 medium (R2405, Sigma-Aldrich) supplemented with 10% fetal bovine serum (FBS, F2442, Sigma Aldrich) and incubated in 5% CO2 humidity at 37° C. […]
(§3) Total RNA was isolated with TRIzol reagent (15596026, Thermo Fisher Scientific) after treatment with C75 or siRNA for 24 hours. The expression profiles of key genes (FASN, PKLR in K562/HepG2, and PNPLA3, PCSK9 only in HepG2 cells) in the co-expression network were measured and analyzed via quantitative real-time PCR with iTaq Universal SYBR Green One-Step Kit (1725151, Bio-Rad), using anchored oligo (dT) primer based on CFX96™ detection system (Bio-Rad). […] Variation in cell proliferation was detected with a Cell Counting Kit-8 (CCK-8, CK04, Dojindo) after interference by C75/siRNA for 72 hours. […]

[4] = tested on: K562 cells; test: Cell growth of K562 cells (Cell Counting Kit-8) after interference for 72 hours; format: cell-based, human; settings: C75 (0, 20, 40, 60, 80 μM), FIG. 2B
Description: as §1, §2, §3

[5] = tested on: HepG2 cells; test: RT-PCR gene expression in HepG2 cells after interference by C75 or PKLR-specific siRNA for 24 hours; format: cell-based, human; settings: C75 (0, 40, 60 μM), FIG. 2C
Description: as §1
For subsequent experiments, K562 and HepG2, human immortalized myelogenous leukemia and hepatic cell lines, respectively, were selected. Both cell lines were cultured in RPMI-1640 medium (R2405, Sigma-Aldrich) supplemented with 10% fetal bovine serum (FBS, F2442, Sigma Aldrich) and incubated in 5% CO2 humidity at 37° C.
To confirm the speculated CN, chemical inhibitors and RNA interference (RNAi) assays were chosen to interfere with the immortalized cell lines (including K562 and HepG2) and the subsequent candidate gene expression and cell growth patterns were observed. More specifically, the experimental protocol was as follows: (1) C75 (C5490, Sigma-Aldrich), as a well-known fatty acid synthase [FAS] inhibitor, was added to cells at 80% confluence with a final concentration of 20, 40, 60, or 80 μM (taking cells without C75 interference as the control); (2) cells at 80% confluence were separately transfected with […] of Silencer® pre-designed PKLR-targeted siRNAs (clone ID: 53 (SEQ ID NO:2 and SEQ ID NO:3), 54 (SEQ ID NO:2 and SEQ ID NO:5), Life Technologies) at 15 nM by using Lipofectamine® RNAiMAX (13778075, Life Technologies). Cells incubated in medium with non-target negative control siRNA at 15 nM (4390843, Life Technologies) were assigned as the control.
Total RNA was isolated with TRIzol reagent (15596026, Thermo Fisher Scientific) after treatment with C75 or siRNA for 24 hours. The expression profiles of key genes (FASN, PKLR in K562/HepG2, and PNPLA3, PCSK9 only in HepG2 cells) in the co-expression network were measured and analyzed via quantitative real-time PCR with iTaq Universal SYBR Green One-Step Kit (1725151, Bio-Rad), using anchored oligo (dT) primer based on CFX96™ detection system (Bio-Rad). GAPDH was set as the internal control for normalization. The primer sequences were SEQ ID NO:9 (FASN forward), SEQ ID NO:10 (FASN reverse), SEQ ID NO:11 (PKLR forward), SEQ ID NO:12 (PKLR reverse), SEQ ID NO:13 (PNPLA3 forward), SEQ ID NO:14 (PNPLA3 reverse), SEQ ID NO:15 (PCSK9 forward), SEQ ID NO:16 (PCSK9 reverse), SEQ ID NO:17 (GAPDH forward) and SEQ ID NO:18 (GAPDH reverse). Variation in cell proliferation was detected with a Cell Counting Kit-8 (CCK-8, CK04, Dojindo) after interference by C75/siRNA for 72 hours. […]

[6] = tested on: HepG2 cells; test: Cell growth of HepG2 cells (Cell Counting Kit-8) after interference for 72 hours; format: cell-based, human; settings: different concentrations of C75 (0, 20, 40, 60, 80 μM), FIG. 2D
Description: as §1, §2, §3

[7] = tested on: primary human hepatocytes; test: mRNA expression in primary human hepatocytes treated with C75 (TaqMan real-time PCR); format: cell-based; settings: 40 μg/ml C75, 4, 6, 8 or 24 hours, FIG. 3F
Description: Human primary hepatocytes were purchased from Biopredic International. Twenty-four hours after arrival (48 hours after isolation), human hepatocytes were treated with 40 μg/ml of C75 or dimethyl sulfoxide (DMSO) for 4, 6, 8 or 24 hours.
Total RNA was isolated from human hepatocytes and snap-frozen mouse liver with an RNeasy Mini Kit (Qiagen). cDNA was synthesized with a high-capacity cDNA Reverse Transcription Kit (Applied Biosystems) and random primers. The mRNA expression levels of genes of interest were analyzed via TaqMan real-time PCR in a ViiATM7 System (Applied Biosystems). The TaqMan Gene Expression assays used were Mm01263610_m1 (for mouse Pcsk9), Mm00662319_m1 (mouse Fasn), Mm00443090_m1 (mouse Pklr), Mm00504420_m1 (mouse Pnpla3), Mm01282499_m1 (mouse Hmgcr), Hs00545399_m1 (human PCSK9), Hs01005622_m1 (human FASN), Hs00176075_m1 (human PKLR), Hs00228747_m1 (human PNPLA3), and Hs00168352_m1 (human HMGCR) (all from Applied Biosystems). Hprt (mouse Mm03024075_m1) and GADPH (human Hs02758991_g1) (Applied Biosystems) were used as internal controls.

With “siRNA 53: PKLR-targeted Silencer pre-designed siRNA; sense sequence SEQ ID NO:5, antisense sequence SEQ ID NO:6 (sense GGAGAUGAUCAAGGCCGGGTT; antisense CCCGGCCUUGAUCAUCUCCTT; chemistry not given here; listed as Homo sapiens)” the “inhibitory rate of PKLR expression (down-regulation vs negative control)” value [1] was 96%, the “decrease of total triglyceride compared to negative control” value ([2]; after adjusting based on the phosphatidylcholines levels) was “about 15%” and the triglyceride level ([2]; siRNA 72 hours vs non-targeting negative control, P<0.05) was “significant decrease”. The “total triglyceride adjusted based on the phosphatidylcholines levels” value ([2]; siRNA 72 hours, negative control 555.0±51.2) was 471.7±45.5.

In the case of C=C1C(=O)OC(CCCCCCCC)C1C(=O)O (stereo not shown) [C75], the FASN expression level [3] is reported as “significantly decreased”, the PKLR expression level [3] is reported as “significantly decreased” and the cell growth [4] is reported as “significant decrease”. The FASN expression level [5] was “significantly decreased”, the PCSK9 expression level [5] was “significantly decreased” and the PKLR expression level [5] was “significantly decreased”. For the same compound, the PNPLA3 expression level [5] was “significantly decreased”, the cell growth [6] was “significantly decreased” and the “expression of FASN in relation to expression of PKLR, PCSK9, PNPLA3” value [7] was “interconnected”.
